Experimental data reported in patent US7772252B2, “Heterocyclic substituted carbonyl derivatives and their use as dopamine D3 receptor ligands” (Aventis Pharmaceuticals Inc., priority 2001, dated 2010).

The compounds below were run against T1, cloned human dopamine D3 receptors (Homo sapiens, UniProt P35462) (assay: [N-Methyl-3H]Spiroperidol binding to cloned human dopamine D3 receptors). Conditions: D3 Ki.
T1 construct: expressed in transfected cells; membrane homogenate
T1 sequence (P35462 whole entry): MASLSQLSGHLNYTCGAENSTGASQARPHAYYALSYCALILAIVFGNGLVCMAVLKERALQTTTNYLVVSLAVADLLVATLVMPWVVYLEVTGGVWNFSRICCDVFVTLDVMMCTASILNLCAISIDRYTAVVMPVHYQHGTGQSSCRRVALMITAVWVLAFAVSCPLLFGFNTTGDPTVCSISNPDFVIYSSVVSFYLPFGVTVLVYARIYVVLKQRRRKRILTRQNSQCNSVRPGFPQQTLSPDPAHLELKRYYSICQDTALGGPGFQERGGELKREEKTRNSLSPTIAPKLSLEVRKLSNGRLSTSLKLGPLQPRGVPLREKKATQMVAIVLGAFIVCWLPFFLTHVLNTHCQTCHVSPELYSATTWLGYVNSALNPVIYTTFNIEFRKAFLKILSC
In short: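 Stably transfected CHO cells expressing cloned human D3 receptor were used as membranes homogenized in 10% DMSO. Ligand was [N-methyl-3H]spiroperidol displacement.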
`O=C([C@@H]1C[C@H]1CN1CCN(c2csc3cc(C(F)(F)F)ccc23)CC1)N1CCC(Nc2ccc(Cl)cc2)CC1` [compound 832495] showed a Ki of 63.6 nM.

Same assay, conditions: read-out: D3 Ki
`Cc1cn(CCCNC(=O)[C@@H]2C[C@H]2CN2CCC(c3noc4ccsc34)CC2)c(C)n1` [compound 831938] gave a Ki of 33 nM. `O=C(N[C@H]1CC[C@H](O)CC1)[C@@H]1C[C@H]1CN1CCC(c2cc3ccccc3s2)CC1` [compound 831950] gave a Ki of 5.48 nM. Work on `Cc1ccc(S(=O)(=O)n2nc(N3CCN(C[C@@H]4C[C@H]4C(=O)N[C@H]4CC[C@H](O)CC4)CC3)c3sccc32)cc1` [compound 831951] yielded a Ki of 36.7 nM. Compound `COc1c(F)ccc2c(C3CCN(C[C@@H]4C[C@H]4C(=O)N[C@H]4CC[C@H](O)CC4)CC3)noc12` [compound 831952] has a Ki of 42.8 nM. `O=C(N[C@H]1CC[C@H](O)CC1)[C@@H]1C[C@H]1CN1CCC(c2nn(-c3ccc(C(F)(F)F)cc3)c3ccccc23)CC1` [compound 831953] gave a Ki of 37.4 nM. Compound `O=C([C@@H]1C[C@H]1CN1CCC(c2noc3ccsc23)CC1)N1CCC(Cn2ccnc2)CC1` [compound 831957] has a Ki of 63.2 nM. `O=C([C@@H]1C[C@H]1CN1CCN(c2csc3cc(C(F)(F)F)ccc23)CC1)N1CCC(Cn2ccnc2)CC1` [compound 831958] gave a Ki of 13 nM. `COc1cccc2c(C3CCN(C[C@@H]4C[C@H]4C(=O)NCCCc4ccccc4)CC3)noc12` [compound 832102] showed a Ki of 81.5 nM. `COc1cccc2c(C3CCN(C[C@@H]4C[C@H]4C(=O)NCCCc4cccnc4)CC3)noc12` [compound 832104] gave a Ki of 620 nM. `COc1cccc2c(C3CCN(C[C@@H]4C[C@H]4C(=O)NCCCN4CCCCC4)CC3)noc12` [compound 832108] showed a Ki of 178 nM. `O=C(NCCCn1ccnc1)C1(CCN2CCC(c3noc4ccsc34)CC2)CC1` [compound 832171] was tested, and the Ki was 4.9 nM. Compound `O=C(NCCc1ccccc1)C1(CCN2CCC(c3noc4ccsc34)CC2)CC1` [compound 832180] has a Ki of 91 nM. `Cn1nc(N2CCN(C[C@@H]3C[C@H]3C(=O)N3CCC(n4ccnc4)CC3)CC2)c2sccc21` [compound 832207] gave a Ki of 54.8 nM. With `O=C(CCCN1CCN(c2noc3ccsc23)CC1)N1CCC(n2ccnc2)CC1` [compound 832212] the Ki was 302 nM. Work on `CN1CCC[C@@H]1CCNC(=O)[C@@H]1C[C@H]1CN1CCN(c2csc3cc(C(F)(F)F)ccc23)CC1` [compound 832216] yielded a Ki of 76.5 nM. With `O=C(N1CCCC1)C1(CCN2CCC(c3noc4ccsc34)CC2)CC1` [compound 832239] the Ki was 207 nM. `O=C(NCCCN1CCOCC1)C1(CCN2CCC(c3noc4ccsc34)CC2)CC1` [compound 832240] gave a Ki of 186 nM. `O=C(N[C@H]1CC[C@H](O)CC1)[C@@H]1C[C@H]1CN1CCC(c2noc3c(C(F)(F)F)cccc23)CC1` [compound 832271] was tested, and the Ki was 112 nM. `O=C(NCCCN1CCCCC1)[C@@H]1C[C@H]1CN1CCC(c2noc3c(C(F)(F)F)cccc23)CC1` [compound 832272] gave a Ki of 145 nM. In the case of `O=C(NCCCn1ccnc1)[C@@H]1C[C@H]1CN1CCC(c2noc3c(C(F)(F)F)cccc23)CC1` [compound 832274], the Ki is reported as 52.4 nM. For `O=C(N[C@H]1CC[C@H](O)CC1)C1(CCN2CCC(c3noc4ccsc34)CC2)CC1` [compound 832317], the Ki was 943 nM. With `O=C(NCCCc1cc[nH]c1)[C@@H]1C[C@H]1CN1CCN(c2csc3cc(C(F)(F)F)ccc23)CC1` [compound 832494] the Ki was 25 nM. Compound `N=C(N)N1CCC(CNC(=O)[C@@H]2C[C@H]2CN2CCN(c3csc4cc(C(F)(F)F)ccc34)CC2)CC1` [compound 832496] has a Ki of 3.66 nM. Work on `O=C(NCCSc1ccc(Cl)cc1)[C@@H]1C[C@H]1CN1CCN(c2csc3cc(C(F)(F)F)ccc23)CC1` [compound 832497] yielded a Ki of 38 nM. In the case of `O=C(NCCN1CCNC1=O)[C@@H]1C[C@H]1CN1CCN(c2csc3cc(C(F)(F)F)ccc23)CC1` [compound 832498], the Ki is reported as 70.3 nM. Work on `CC(C)(C)OC(=O)N1CCC(NC(=O)[C@@H]2C[C@H]2CN2CCN(c3csc4cc(C(F)(F)F)ccc34)CC2)CC1` [compound 832499] yielded a Ki of 19.7 nM. `O=C([C@@H]1C[C@H]1CN1CCN(c2csc3cc(C(F)(F)F)ccc23)CC1)N1CCC(N2CCCC2)CC1` [compound 832510] showed a Ki of 25 nM. `O=C(NCCCN1CCCCCC1)[C@@H]1C[C@H]1CN1CCN(c2csc3cc(C(F)(F)F)ccc23)CC1` [compound 832511] was tested, and the Ki was 12.3 nM. For `Cc1nc(Cl)c(Cl)n1CCCNC(=O)[C@@H]1C[C@H]1CN1CCN(c2csc3cc(C(F)(F)F)ccc23)CC1` [compound 832512], the Ki was 15.7 nM. Work on `CC[C@H]1CC[C@H](NC(=O)C2(CCN3CCN(c4csc5cc(C(F)(F)F)ccc45)CC3)CC2)CC1` [compound 832517] yielded a Ki of 173 nM. For `O=C(NCCCN1CCOCC1)C1(CCN2CCN(c3csc4cc(C(F)(F)F)ccc34)CC2)CC1` [compound 832518], the Ki was 98.2 nM. `O=C(NCCc1ccccc1)C1(CCN2CCN(c3csc4cc(C(F)(F)F)ccc34)CC2)CC1` [compound 832519] was tested, and the Ki was 97.5 nM. `O=C(N[C@H]1CC[C@H](O)CC1)C1(CCN2CCN(c3csc4cc(C(F)(F)F)ccc34)CC2)CC1` [compound 832520] gave a Ki of 141 nM. Compound `O=C([C@@H]1C[C@H]1CN1CCC(c2noc3ccsc23)CC1)N1CCC(c2nc3ccccc3s2)CC1` [compound 832527] has a Ki of 45.4 nM. `O=C(NCCS(=O)(=O)c1cccc2c(Cl)cccc12)[C@@H]1C[C@H]1CN1CCC(c2noc3ccsc23)CC1` [compound 832528] gave a Ki of 48.5 nM. `O=C(NCCN1CCNC1=O)[C@@H]1C[C@H]1CN1CCC(c2noc3ccsc23)CC1` [compound 832529] gave a Ki of 146 nM. `O=C(NCCCCc1cccnc1)[C@@H]1C[C@H]1CN1CCC(c2noc3ccsc23)CC1` [compound 832530] showed a Ki of 16 nM. For `O=C([C@@H]1C[C@H]1CN1CCC(c2noc3ccsc23)CC1)N1CCC(n2c(=O)[nH]c3ccccc32)CC1` [compound 832531], the Ki was 67.7 nM. Work on `O=C([C@@H]1C[C@H]1CN1CCC(c2noc3ccsc23)CC1)N1CCN(Cc2ccc(Cl)c(Cl)c2)CC1` [compound 832532] yielded a Ki of 14.4 nM. With `O=C(NCCCn1ccnc1)[C@@H]1C[C@H]1CN1CCN(c2nn(-c3ccc(F)cc3)c3ccsc23)CC1` [compound 832565] the Ki was 1.45 nM. For `O=C(N[C@H]1CC[C@H](O)CC1)[C@@H]1C[C@H]1CN1CCN(c2nn(-c3ccc(F)cc3)c3ccsc23)CC1` [compound 832566], the Ki was 1.76 nM. With `CN1CCC(N(C)C(=O)[C@@H]2C[C@H]2CN2CCN(c3csc4cc(C(F)(F)F)ccc34)CC2)CC1` [compound 832577] the Ki was 1.85 nM. `CN1CCN(CCCNC(=O)[C@@H]2C[C@H]2CN2CCN(c3csc4cc(C(F)(F)F)ccc34)CC2)CC1` [compound 832579] gave a Ki of 6.29 nM. `CN(C)CCN1CCN(C(=O)[C@@H]2C[C@H]2CN2CCN(c3csc4cc(C(F)(F)F)ccc34)CC2)CC1` [compound 832580] showed a Ki of 28.8 nM. For `O=C([C@@H]1C[C@H]1CN1CCN(c2csc3cc(C(F)(F)F)ccc23)CC1)N1CCN(CCOCCO)CC1` [compound 832581], the Ki was 67.3 nM. `CC(C)NC(=O)CN1CCN(C(=O)[C@@H]2C[C@H]2CN2CCN(c3csc4cc(C(F)(F)F)ccc34)CC2)CC1` [compound 832582] showed a Ki of 25 nM. In the case of `O=C(NC1CCN(Cc2ncc[nH]2)CC1)[C@@H]1C[C@H]1CN1CCN(c2csc3cc(C(F)(F)F)ccc23)CC1` [compound 832583], the Ki is reported as 1.61 nM. Work on `O=C(NCCCn1ccnc1)[C@@H]1C[C@H]1CN1CCN(c2nn(-c3ccccc3)c3ccsc23)CC1` [compound 832592] yielded a Ki of 7.29 nM. `O=C(NCCCn1ccnc1)[C@@H]1C[C@H]1CN1CCN(c2nn(-c3ccc(C(F)(F)F)cc3)c3ccsc23)CC1` [compound 832634] showed a Ki of 7.63 nM. `O=C(N[C@H]1CC[C@H](O)CC1)[C@@H]1C[C@H]1CN1CCN(c2nn(-c3ccc(C(F)(F)F)cc3)c3ccsc23)CC1` [compound 832648] showed a Ki of 20.8 nM. For `O=C(NCCCN1CCCCC1)[C@@H]1C[C@H]1CN1CCC(c2cc3ccccc3s2)CC1` [compound 832714], the Ki was 12.4 nM. In the case of `O=C([C@@H]1C[C@H]1CN1CCC(c2cc3ccccc3s2)CC1)N1CCC(N2CCCC2)CC1` [compound 832715], the Ki is reported as 166 nM. `O=C(NC1CCN(Cc2ccc(Cl)c(Cl)c2)CC1)[C@@H]1C[C@H]1CN1CCC(c2cc3ccccc3s2)CC1` [compound 832716] gave a Ki of 7.54 nM. Compound `O=C([C@@H]1C[C@H]1CN1CCC(c2noc3ccsc23)CC1)N1CCC(Oc2ccc(Cl)cc2)CC1` [compound 832723] has a Ki of 54 nM. Compound `COc1ccccc1CN1CCC(NC(=O)[C@@H]2C[C@H]2CN2CCC(c3noc4ccsc34)CC2)CC1` [compound 832724] has a Ki of 1.44 nM. `O=C(NCCc1ccc(F)cc1)[C@@H]1C[C@H]1CN1CCC(c2noc3ccsc23)CC1` [compound 832725] showed a Ki of 4.22 nM. In the case of `O=C(NCCc1cccc(F)c1)[C@@H]1C[C@H]1CN1CCC(c2noc3ccsc23)CC1` [compound 832726], the Ki is reported as 7.05 nM. With `O=C(NC1CCN(Cc2cccc(Cl)c2)CC1)[C@@H]1C[C@H]1CN1CCC(c2noc3ccsc23)CC1` [compound 832728] the Ki was 3.12 nM. `O=C(NC1CCN(Cc2ccc(Cl)cc2)CC1)[C@@H]1C[C@H]1CN1CCC(c2noc3ccsc23)CC1` [compound 832729] was tested, and the Ki was 1.67 nM. In the case of `O=C(NC1CCN(Cc2ccccc2Cl)CC1)[C@@H]1C[C@H]1CN1CCC(c2noc3ccsc23)CC1` [compound 832730], the Ki is reported as 3.62 nM. With `O=C(NC1CCN(Cc2ccc(Cl)c(Cl)c2)CC1)[C@@H]1C[C@H]1CN1CCC(c2noc3ccsc23)CC1` [compound 832731] the Ki was 0.699 nM. `O=C(NC1CCN(Cc2ccc(F)cc2)CC1)[C@@H]1C[C@H]1CN1CCC(c2noc3ccsc23)CC1` [compound 832732] gave a Ki of 0.74 nM. In the case of `O=C(NC1CCN(CC2CCCCC2)CC1)[C@@H]1C[C@H]1CN1CCC(c2noc3ccsc23)CC1` [compound 832733], the Ki is reported as 0.656 nM. In the case of `O=C([C@@H]1C[C@H]1CN1CCN(c2csc3cc(C(F)(F)F)ccc23)CC1)N1CCN(CCO)CC1` [compound 832735], the Ki is reported as 36.8 nM. `O=C(NC1CCN(Cc2ccc(Cl)cc2)CC1)[C@@H]1C[C@H]1CN1CCN(c2csc3cc(C(F)(F)F)ccc23)CC1` [compound 832737] was tested, and the Ki was 5.42 nM. `COc1ccccc1CN1CCC(NC(=O)[C@@H]2C[C@H]2CN2CCN(c3csc4cc(C(F)(F)F)ccc34)CC2)CC1` [compound 832739] was tested, and the Ki was 2.89 nM.
